Test results taken from patent US8673964B2, “Use of drug combinations for treating insulin resistance” (DiaMedica Inc., priority 2004, dated 2014).
Several values for one entry are separate records, joined by “and”; a condition that tells them apart may be missing. Identical values can stand only once.

What was measured:
sucrose fed rats = experiment: Rapid insulin sensitivity test (RIST): meal induced insulin sensitization in control diet and sucrose fed rats; assay type: in vivo, Sprague Dawley rats; conditions: individual animals
Description: Animal Groups—Male Sprague Dawley rats having a starting weight of ≧220.0 g (Charles River, St. Constant, Quebec, Canada) were fed a normal rat chow diet and regular tap water, with and without the exposure to a 35% liquid sucrose solution for a 2 week period. Six groups of animals were established under the following treatments: […] (2) control diet, bethanechol (0.5 μg/kg ipv) and N-acetyl-L-cysteine (200 mg/kg) treatment (n=8); (3) control diet, bethanechol (0.5 μg/kg ipv) (n=5); (4) control diet, N-acetyl-L-cysteine (200 mg/kg) (n=4); (5) sucrose diet, saline treatment (n=4); (6) sucrose diet, bethanechol (0.5 μg/kg ipv) and N-acetyl-L-cysteine (200 mg/kg) treatment (n=5); (7) sucrose diet, bethanechol (0.5 μg/kg ipv) (n=6); and (8) sucrose diet, N-acetyl-L-cysteine (200 mg/kg) (n=3). Methodology—All animals are 24 hour fasted. The animals are prepared using the standard RIST surgical preparation. The rats are anaesthetized with an intraperitoneal injection of sodium pentobarbital (65 mg kg-1; Somnotol, MTC Pharmaceuticals, Ont). […] The rats are placed on a temperature-controlled surgical table (Harvard Apparatus, Kent, England) and rectal temperature is monitored and held at 37-37.5° C. Spontaneous respiration is allowed through a tracheal tube. An arterial-venous shunt is established, as previous described (Lautt W W et al. Can J Physiol Pharmacol. 1998; 76 (12): 1080-6), for monitoring mean arterial blood pressure (MAP), blood glucose level and for drug delivery. Briefly, two catheters (polyethylene tubing PE60), one inserted into the right femoral artery and the other into the right femoral vein, are connected to the two openings of a three way vascular circuit consisting of a T tube connected with silicon tubing. The third opening of the circuit is connected to a pressure transducer for the recording of the shunt pressure which, when the silicon tubing toward the venous side of the circuit is closed by clamping, represented the systemic arterial blood pressure. Blood samples are taken from the arterial side of the shunt for the glucose measurement. Flowing blood within the shunt assures the real time measurement of the blood glucose concentration, which is essential for the euglycemic clamp test as mentioned below. An infusion line is inserted into the venous side of the loop for drug delivery. Another infusion line connected to the jugular vein is established for glucose infusion. Animals are heparinized (100 IU·kg-1) to prevent clotting in the vascular loop. […] A control RIST is performed as previously described (Lautt W W et al. Can J Physiol Pharmacol. 1998; 76 (12): 1080-6). […] The baseline glucose levels are then determined by samples taken at 5-min intervals and continued until three successive stable determinations were made. […]

[1] = system: Rats with Insulin Resistance Produced by Hepatic Denervation; experiment: RIST in rats with insulin resistance produced by hepatic denervation; assay type: in vivo
Description: Methodology—All animals are 24 hour fasted. The animals are prepared using the standard RIST surgical preparation. The rats are anaesthetized with an intraperitoneal injection of sodium pentobarbital (65 mg kg-1; Somnotol, MTC Pharmaceuticals, Ont). Maintained anesthesia is achieved throughout the experiment by a continuous infusion of pentobarbital sodium (0.5 mg·ml-1 saline given at 50 μl·min-1) through a cannula in the jugular vein, supplemented with a 0.65 mg (0.01 ml) bolus injection when required. The rats are placed on a temperature-controlled surgical table (Harvard Apparatus, Kent, England) and rectal temperature is monitored and held at 37-37.5° C. Spontaneous respiration is allowed through a tracheal tube.
An arterial-venous shunt is established, as previous described (Lautt W W et al. Can J Physiol Pharmacol. 1998; 76 (12): 1080-6), for monitoring mean arterial blood pressure (MAP), blood glucose level and for drug delivery. Briefly, two catheters (polyethylene tubing PE60), one inserted into the right femoral artery and the other into the right femoral vein, are connected to the two openings of a three way vascular circuit consisting of a T tube connected with silicon tubing. The third opening of the circuit is connected to a pressure transducer for the recording of the shunt pressure which, when the silicon tubing toward the venous side of the circuit is closed by clamping, represented the systemic arterial blood pressure. Blood samples are taken from the arterial side of the shunt for the glucose measurement. […]
A control RIST is performed as previously described (Lautt W W et al. Can J Physiol Pharmacol. 1998; 76 (12): 1080-6). […] The baseline glucose levels are then determined by samples taken at 5-min intervals and continued until three successive stable determinations were made. […] After 1-min of insulin infusion, the first test glucose sample is determined and a variable glucose infusion (10%) is initiated. […]

SMILES: CC(C[N+](C)(C)C)OC(N)=O (stereo not shown) [Bethanechol, bethanechol]
- percent potentation of RIST as compared to control (sucrose fed rats; Control Diet, bethanechol 0.5 μg/kg ipv alone, listed as BCH): 9.06% and 15.19% and 35.62% and 33.87% and 60.33%
- percent potentation of RIST as compared to control (sucrose fed rats; Sucrose Diet, bethanechol 0.5 μg/kg ipv alone, listed as BCH): 45.59% and 13.22% and −13.22% and 14.22% and 7.71% and 22.36%
- RIST index after surgical hepatic denervation ([1]; bethanechol infusion into the portal vein 2.5 mg/kg/min from 10 minutes prior to insulin, entire test period): reversal of the insulin resistance

SMILES: CC(=O)N[C@@H](CS)C(=O)O [NAC, N-acetyl-L-cysteine]
- percent potentation of RIST as compared to control (sucrose fed rats; Control Diet, N-acetyl-L-cysteine 200 mg/kg alone): 33.5% and 27.39% and 57.25% and 1.89%
- percent potentation of RIST as compared to control (sucrose fed rats; Sucrose Diet, N-acetyl-L-cysteine 200 mg/kg alone): 3% and −13.85% and −2.63%
- RIST index after surgical hepatic denervation ([1]; NAC (200 mg/mL) infusion into the portal vein 0.1 mL/min for 2 minutes): reversal of the insulin resistance

SMILES: [NH-]c1c[n+](N2CCOCC2)no1 [SIN-1, 3-morpholinosyndnonimine]
- RIST index after surgical hepatic denervation ([1]; SIN-1 infusion into the portal vein 10.0 mg/kg/min for 2 minutes): reversal of the insulin resistance
